This is an account of results in patent publication US20260365855A1, “TARGETED QUINOCYANINE DYES FOR THE INTRAOPERATIVE DELINEATION OF CANCER MARGINS” (THE TRUSTEES OF THE UNIVERSITY OF PENNSYLVANIA, priority 2022, published 2026).

For one series, the system named is KLN 205 cells. The series can be described thus: Cell uptake (NIR-II emission of cell lysates). The series is classed as cell-based. The conditions noted are these: 10 μM, 2 h, 37 °C; lysed with 0.5% Triton X-100. As to the method: KLN 205 cells were seeded into an 8 chamber slide at 15,000 cells/well. Cells were incubated overnight at 37 °C and 5% CO2. Cells were then treated in 500 μL with 10 μM of compound 1, compound 2 or compound 3, or with vehicle (DMSO). The slide was incubated for 2 hours with treatment at 37 °C and 5% CO2.
Following treatment, the solution was aspirated, and cells were rinsed twice with 500 μL of ice-cold DPBS. Triton X-100 was diluted to be 0.5% Triton, and 500 μL of this solution were added to each chamber for 10 min at 37 °C and 5% CO2 to lyse the cells. 100 μL were removed from each chamber and added to a 96-well black-well clear-bottom plate. The plate was then imaged for NIR-II emission using the PhotonEtc IR Vivo with excitation at 760, 808, 890, or 940 nm.
Cell uptake of compound 1, compound 2 and compound 3 was evaluated by incubating KLN 205 cells in 10 μM of compound 1, compound 2 and compound 3, or with DMSO for 2 hrs. Following incubation, cells were rinsed twice with ice-cold DPBS before lysing by treatment with Triton. The lysates were then transferred to a 96-well black-well clear-bottom plate and imaged for NIR-II fluorescence in the IR Vivo, as shown in FIG. 4.

Another series in a line: Absorbance spectra. It is filed as physicochemical. The conditions noted are these: 5 μM in DMSO. The procedure: Absorbance spectra. The absorbances for compound 1 and compound 2 were obtained using a PerkinElmer Lambda 5 measuring absorbances in 1 nm steps from 500 to 1100 nm. The absorbance spectrum for compound 3 was obtained using a JASCO VI 70 measuring in 1 nm steps from 850 to 1150 nm. All compounds were dissolved in DMSO at a concentration of 5 μM.
Synthesis of compound 1, compound 2 and compound 3 was verified by MALDI-TOF mass spectrometry with further confirmation by ^1H-NMR.

The nature of a further series: Emission spectra. The series is classed as physicochemical. The conditions noted are these: for NIR-II fluorescence: absorbance and emission spectra, DMSO. As to the method: Emission spectra. The emissions for compounds 1, 2 and 3 were obtained using a Horiba QuantaMaster with excitation at 900 nm and emissions recorded in 1 nm steps from 925 to 1300 nm. […]
Compound 3 has a maximum absorbance at 942 nm and maximum emission at 979 nm. The emission intensities were determined with excitation at 900 nm.

Series [1] in a line: NIR-II fluorescence of compound 1 vs. JAS239 and ICG (plate imaging, IR Vivo). The conditions noted are these: for NIR-II emissions; excitation requirement: discussion of NIR-I fluorophores, require excitation with a NIR-I laser; for NIR-II emission: emission 1,000-1,250 nm, DMSO, no tissue. The series is classed as physicochemical. As to the method: NIR-II Fluorescence of Compound 1 vs. JAS239 and ICG.
Compound 1, JAS239, and ICG were dissolved in DMSO and added to a 96-well black-well clear-bottom plate at concentrations from 1 μM to 100 μM. The plate was then imaged using the PhotonEtc IR Vivo using the NIR-II emission filter (1000-1250 nm) with excitation at 760 nm, 808 nm, 890 nm, or 940 nm.
Dyes were excited with excitation lasers at 760, 808, 890, and 940 nm and emissions were measured between 1,000 and 1,250 nm.

A short description of series [2]: Depth penetration comparisons of compound 1 vs. JAS239 and ICG through chicken breast tissue. The procedure: Depth Penetration Comparisons of Compound 1 vs. JAS239 and ICG.
Compound 1, JAS239, and ICG were diluted in DMSO and placed in a 96-well black-well clear-bottom plate at concentrations from 0.1 μM to 100 μM. The plate was then imaged using the PhotonEtc IR Vivo using the NIR-II emission filter with excitation at 760, 808, 890, or 940 nm. Wells were then covered with thinly sliced raw chicken breast tissue from 1 mm to 3 mm thick. Imaging was then repeated for each tissue thickness.
Chicken breast tissue was layered over wells containing varying concentrations of each fluorophore in 1 mm sections. Fluorescence in the NIR-II window was measured following excitation at 760, 808, 890, and 940 nm. […] Tissue scattering, absorption, and autofluorescence decreases at increasing wavelengths of light. Thus, the improved resolution of compound 1 with increasing wavelength of excitation laser likely resulted from improved tissue penetration of the excitation laser. Compound 1 has a maximum absorption at 970 nm resulting in strong excitation of the probe and fluorescence conversion.

For series [3] the following is noted: NIR-II range; cited from earlier work.
In a further series the test system is Athymic Nu/Nu mice. The series can be described thus: In vivo imaging after tail vein injection. As to conditions: 40 nmol via tail vein. The procedure:
Athymic Nu/Nu mice were injected with 40 nmol compound 1 through the tail vein in Normal Saline and filtered through a 0.22 μm filter.

[4] abbreviates: 5 μM in DMSO, excitation at 900 nm.
Setting [5] is: excitation lasers 760 and 808 nm.
Setting [6] is: excitation lasers 890 and 940 nm.

“Also recorded” adds a separate entry of the source.

Regarding “4-((E)-2((E)-2-chloro-3-(2-((Z)-1-hydroxyethylquinolin-4(JH)-ylidene)-ethylidene)cyclohex-1-en-1-yl)vinyl)-1-hydroxyethylquinolin-1-ium chloride [compound 2]”, the “NIR-II fluorescence of cell lysates (cell uptake)” value with KLN 205 cells was “measurable emissions; also recorded: measurable fluorescence in the NIR-II window”. Moreover, in the series “Absorbance spectra”, the “absorbance maxima, shift compared to compound 3” value is on record as “further shifted into the NIR-II window compared to compound 3” and the maximum absorbance came out at 970 nm. In addition, in the series “Emission spectra” (setting [4]), the “emission maxima, shift compared to compound 3” value is recorded as “further shifted into the NIR-II window compared to compound 3” and the maximum emission amounted to 1007 nm. The NIR-II fluorescence result in the series “Emission spectra” is on record as “measurable NIR-II fluorescence”.
Consider `CC1(C)C(/C=C/C=C/C=C/C=C2\N(CCCCS(=O)(=O)O)c3ccc4ccccc4c3C2(C)C)=[N+](CCCCS(=O)(=O)[O-])c2ccc3ccccc3c21` [ICG, indocyanine green], for which, in series [1], the “NIR-II emissions; excitation requirement” value is “measurable emissions in the NIR-II window”. Besides, the NIR-II emission entry in series [1] (setting [5]) is “strongest NIR-II emissions”; in series [1] (setting [6]) it was “disappeared”. Besides, the “NIR-II emission intensity, no tissue present” value in series [2] is recorded as “most intense emissions in the NIR-II window”. Further, the “NIR-II fluorescence (background statement)” value in series [3] is reported as “measurable fluorescence at even longer wavelengths of light in the near-infrared II (NIR-II) range”.
Regarding `CC1(C)C(=C/C=C/C=C/C=C/C2=[N+](CCO)c3ccccc3C2(C)C)N(CCO)c2ccccc21` [JAS239], the “NIR-II emissions; excitation requirement” value in series [1] is “measurable emissions in the NIR-II window”. In addition, the NIR-II emission result is “strongest NIR-II emissions” in series [1] (setting [5]) and “disappeared” in series [1] (setting [6]).
For `CCN1C=C/C(=C/C=C2\CCCC(/C=C/c3cc[n+](CC)c4ccccc34)=C2Cl)c2ccccc21.[I-]` [compound 1, 4-((E)-2((E)-2-chloro-3-(2-((Z)-J-ethylquinolin-4(JH)-ylidene)-ethylidene)cyclohex-1-en-1-yl)vinyl)-J-ethylquinolin-1-ium iodide], the “NIR-II fluorescence of cell lysates (cell uptake)” value in the series with KLN 205 cells is “measurable emissions; also recorded: measurable fluorescence in the NIR-II window”. The “NIR-II emission compared to ICG” value in series [1] (IR Vivo, excited near its absorbance maximum) is reported as “comparable NIR-II emissions to ICG”. Further, the NIR-II emission result in series [1] (setting [6]) was “strong NIR-II signal; also recorded: only compound 1 had measurable fluorescence in the NIR-II window”. Further, in the series “Absorbance spectra”, the “absorbance maxima, shift compared to compound 3” value is listed as “further shifted into the NIR-II window compared to compound 3” and the maximum absorbance stood at 970 nm. The “distribution in ventral image” value with Athymic Nu/Nu mice (5 mins after injection) was “in the liver”. The “distribution in ventral image” value with Athymic Nu/Nu mice (2 hours after injection) was “in the throat, liver and intestines”. Also, in “Emission spectra” (setting [4]), the “emission intensity (comparison of compounds 1, 2 and 3)” value is “most intense emission; also recorded: highest fluorescence with an emission maximum in the NIR-II window”; the “emission maxima, shift compared to compound 3” value is reported as “further shifted into the NIR-II window compared to compound 3”; the maximum emission turned out to be 1010 nm. Besides, in “Emission spectra”, the NIR-II fluorescence result is on record as “measurable NIR-II fluorescence”.
For `OCCN1C=C/C(=C/C=C/C=C/C=C/c2cc[n+](CCO)c3ccccc23)c2ccccc21.[Cl-]` [compound 3, l-(2-hydroxyethyl)-4-((JE,3E,5E)-7-((Z)-J-(2-hydroxyethyl)-quinoline-4(JH)-ylidene)hepta-1,3,5-trien-1-yl)quinoline-1-ium chloride], the “NIR-II fluorescence of cell lysates (cell uptake)” value in the series with KLN 205 cells is reported as “no fluorescence was observed”. In addition, the maximum absorbance in the series “Absorbance spectra” came to 942 nm. Moreover, the maximum emission in the series “Emission spectra” (setting [4]) turned out to be 979 nm. Also, the NIR-II fluorescence entry in “Emission spectra” is “measurable NIR-II fluorescence”.
